Measured values reported in BindingDB's records for patent US20250051327 (Exscientia AI, 2025).

Biological target: T1, Mucosa-associated lymphoid tissue lymphoma translocation protein 1 (Homo sapiens, UniProt Q9UDY8)
T1 sequence (Q9UDY8 whole entry): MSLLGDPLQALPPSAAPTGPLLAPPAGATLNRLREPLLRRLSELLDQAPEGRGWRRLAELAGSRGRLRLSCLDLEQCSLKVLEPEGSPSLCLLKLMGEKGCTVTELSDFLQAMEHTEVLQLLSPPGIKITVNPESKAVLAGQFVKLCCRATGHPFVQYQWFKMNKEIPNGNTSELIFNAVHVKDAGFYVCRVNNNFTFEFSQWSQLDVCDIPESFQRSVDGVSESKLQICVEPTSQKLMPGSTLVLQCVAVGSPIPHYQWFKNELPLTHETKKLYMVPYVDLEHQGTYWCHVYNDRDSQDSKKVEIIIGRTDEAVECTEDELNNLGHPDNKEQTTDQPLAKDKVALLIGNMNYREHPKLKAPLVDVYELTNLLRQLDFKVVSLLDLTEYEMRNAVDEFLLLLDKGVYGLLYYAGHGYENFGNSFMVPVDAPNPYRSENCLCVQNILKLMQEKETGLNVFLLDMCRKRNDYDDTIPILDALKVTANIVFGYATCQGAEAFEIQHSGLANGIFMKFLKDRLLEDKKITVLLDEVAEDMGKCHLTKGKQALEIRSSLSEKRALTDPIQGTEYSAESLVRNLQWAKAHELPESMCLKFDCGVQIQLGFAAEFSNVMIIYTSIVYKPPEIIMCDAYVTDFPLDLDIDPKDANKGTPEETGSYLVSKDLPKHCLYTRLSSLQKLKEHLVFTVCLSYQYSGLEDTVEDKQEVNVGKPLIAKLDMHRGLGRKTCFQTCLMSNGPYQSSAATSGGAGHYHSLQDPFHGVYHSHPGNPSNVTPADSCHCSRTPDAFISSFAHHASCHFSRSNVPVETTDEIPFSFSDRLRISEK
Assay: MALT-1 Inhibition Assay
Description: MALT-1 paracaspase activity was measured using the fluorogenic substrate Ac-LRSR-Rh110-DP (purchased from Biosantan GmbH). Proteolytic cleavage of the peptide—rhodamine conjugate results in an increase of rhodamine fluorescence which is inhibited by test compounds. Test compounds were diluted in DMSO in a series of 10 semi-log step doses, 15 nL of each compound dose were dispensed in 384 well polypropylene plates (HiBase non-binding, Greiner Bio-One cat #784900). All other assay components were diluted to appropriate working concentrations in assay buffer composed of: 200 mM Tris-HCl (pH 7.5; Sigma-Aldrich cat #T2663-1L), 0.1 mM EGTA (Sigma-Aldrich cat #E3889-10G), 0.05% CHAPS—Sigma-Aldrich cat #C9426-1G), 1 mM TCEP (Sigma-Aldrich cat #646547-10×1 mL), 0.8 M sodium citrate (Sigma-Aldrich cat #S1804-500G). Recombinant human MALT-1 (amino acids 340-824, accession NP_006776.1) was added to compound doses and equilibrated for 40 minutes at rt. The reaction was initiated by addition of substrate. Final concentrations of MALT-1 and substrate were 3 nM and 10 μM respectively. Reactions were incubated in the dark for 60 minutes at 25° C. Fluorescence was measured in a PHERAstar FSX plate reader (BMG LABTECH) with optical setup for excitation at 485 nm and emission at 520 nm, focal height of 11.8 mm, 20 flashes, gain 300. Percent inhibition values were calculated from relative fluorescence units at different doses and fitted to a 4-parameter logistic curve to determine IC50 values.

| IC50 [nM] | SMILES |
| --- | --- |
| 53 | CN(C(=O)C1CCS(=O)(=O)CC1)[C@@H](c1ccc(N2CC[C@@]3(CCOC3)c3c2cnc2cc(Cl)nn32)cc1)C(F)(F)F [US20250051327, Reference CPD0073762] |
| 57 | CN(C(=O)C1CCS(=O)(=O)CC1)[C@@H](c1ccc(N2CC[C@]3(CCOC3)c3c2cnc2cc(Cl)nn32)cc1)C(F)(F)F [US20250051327, Reference CPD0073763] |
| 155 | CN(C(=O)[C@@H]1CS(=O)(=O)CC12COC2)[C@@H](c1ccc(N2CCCc3c2cnc2cc(Cl)nn32)cc1)C(F)(F)F [US20250051327, Reference CPD0073974] |
| 112 | CN(C(=O)[C@H]1CS(=O)(=O)CC12COC2)[C@@H](c1ccc(N2CCCc3c2cnc2cc(Cl)nn32)cc1)C(F)(F)F [US20250051327, Reference CPD0073975] |
| 138 | COc1ccc2ncc(Nc3ccc([C@H](N(C)C(=O)C4CCS(=O)(=O)CC4)C(F)(F)F)cc3)c([C@H]3CCOC3)c2n1 [US20250051327, Reference CPD0074039] |
| 83 | COc1ccc2ncc(Nc3ccc([C@H](N(C)C(=O)C4CCS(=O)(=O)CC4)C(F)(F)F)cc3)c([C@@H]3CCOC3)c2n1 [US20250051327, Reference CPD0074040] |
| 124 | COc1ccc2ncc(Nc3ccc([C@H](N(C)C(=O)C4CCS(=O)(=O)CC4)C(F)(F)F)cc3)c(C3(OC)COC3)c2n1 [US20250051327, Reference CPD0076414] |
| 45 | CO[C@@H](C)c1c(Nc2ccc([C@H](N(C)C(=O)[C@@H]3CCC(=O)N3)C(F)(F)F)cc2)cnn2cc(Cl)nc12 [US20250051327, Reference CPD0082470] |
| 41 | COc1ccc2ncc(Nc3ccc([C@H](N(C)C(=O)[C@@H]4CNC(=O)C4)C(F)(F)F)cc3)c([C@@H]3CCOC3)c2n1 [US20250051327, Reference CPD0084142] |
| 137 | CO[C@@H](C)c1c(Nc2ccc([C@H](N(C)C(=O)CN3CCN(C)CC3)C(F)(F)F)cc2)cnn2cc(Cl)nc12 [US20250051327, Reference CPD0084933] |
| 65 | CO[C@@H](C)c1c(Nc2ccc([C@H](N(C)C(=O)C3CN(S(C)(=O)=O)C3)C(F)(F)F)cc2)cnn2cc(Cl)nc12 [US20250051327, Reference CPD0084936] |
